From patent US20230390324A1, “TREATMENT OF FATTY LIVER DISEASES” (TX MEDIC AB, priority 2020, published 2023) come the findings set out here.

The test system of data set [1] is 12 BioMAP® Diversity Plus human cell systems. In words: BioMAP Diversity PLUS phenotypic profiling in 12 primary human cell and co-culture systems. Format: cell-based. The procedure:
Twelve primary human cell and co-cultures assays were used to assess the effects of dextran sulfate on clinically-relevant protein biomarkers of inflammation, cell growth and fibrosis as part of the quality controlled BioMAP® Diversity PLUS, commercially available service (Eurofins DiscoverX Corporation, Freemont, CA, USA; for full details https://www.discoverx.com). Dextran sulfate was tested in these assays at four concentrations: 4000 nMw 1300 nMw 400 nM and 150 nM. Human primary cells employed in the BioMAP® systems were used at passage 4 or earlier, derived from multiple donors (n=2 to 6), commercially purchased and handled according to the recommendations of the manufacturers. Human blood derived CD14+ monocytes were differentiated into macrophages in vitro before being added to the IMphg system (Eurofins DiscoverX Corporation).
The cell types and stimuli used in each assay system were as follows: 3C system [Human umbilical vein endothelial cells (HUVEC)+(IL-1β, TNFα and IFNγ)], 4H system [HUVEC+(IL-4 and histamine)], LPS system [Peripheral blood mononuclear cells (PBMC) and HUVEC+LPS (TLR4 ligand)], SAg system [PBMC and HUVEC+TCR ligands], BT system [CD19+ B cells and PBMC+(α-IgM and TCR ligands)], BF4T system [bronchial epithelial cells (BEC) and human neonatal dermal fibroblasts (HDFn)+(TNFα and IL-4)], BE3C system [BEC+(IL-1β, TNFα and IFNγ)], CASM3C system [coronary artery smooth muscle cells (CASMC)+(IL-1β, TNFα and IFNγ)], HDF3CGF system [HDFn+(IL-1β, TNFα, IFNγ, EGF, bFGF and PDGF-BB)], KF3CT system [keratinocytes and HDFn+(IL-1β, TNFα, IFNγ and TGFβ)], MyoF system [differentiated lung myofibroblasts+(TNFα and TGFβ)] and IMphg system [HUVEC and M1 macrophages+Zymosan (TLR2 ligand)].
Assays were derived from either single cell types or co-culture systems. Adherent cell types were cultured in 96 or 384-well plates until confluence, followed by the addition of PBMC (SAg and LPS systems). […] Test agents prepared in either DMSO (small molecules; final concentration 0.1%) or PBS (biologics) were added at the indicated concentrations 1 h before stimulation, and cells remained in culture for 24 h or as otherwise indicated (48 h, MyoF system; 72 h, BT system (soluble readouts); 168 h, BT system (secreted IgG)). […] Soluble factors from supernatants were quantified using either HTRF® detection, bead-based multiplex immunoassay or capture ELISA. Overt adverse effects of dextran sulfate on cell proliferation and viability (cytotoxicity) were detected by sulforhodamine B (SRB) staining for adherent cells, and alamarBlue® reduction for cells in suspension. For proliferation assays, individual cell types were cultured at subconfluence and measured at time points optimized for each system (48 h: 3C and CASM3C systems; 72 h: BT and HDF3CGF systems; 96 h: SAg system). Cytotoxicity for adherent cells was measured by SRB (24 h: 3C, 4H, LPS, SAg, BF4T, BE3C, CASM3C, HDF3CGF, KF3CT, and IMphg systems; 48 h: MyoF system), and by alamarBlue® staining for cells in suspension (24 h: SAg system; 42 h: BT system) at the time points indicated.
Biomarker measurements in dextran sulfate-treated samples were divided by the average of the control samples (at least 6 vehicle controls from the same plate) to generate a ratio that was then log10 transformed. Significance prediction envelopes were calculated using historical vehicle control data at a 95% confidence interval. […]

Data set [2] concerns Human Schwann cells (ATCC CRL-2884™). In words: Gene expression study in cultured human Schwann cells (microarray, IPA network analysis). To be noted: 0.01 mg/ml, 48 hours. It counts as cell-based. The protocol:
Human Schwann cells (ATCC CRL-2884™) were cultured in 25 cm^2 culture flasks coated with poly-d-lysine and laminin) in high-glucose DMEM with 10% fetal bovine serum (FBS) (n=8) and incubated at 37° C./5% CO2. Twenty-four house after seeding (Day 0) cells were treated once with either dextran sulfate (0.01 mg/ml in DMEM) or culture media. After 48 hours with treatment, the media were removed and cells were harvested in 2.5 ml Trizol:Water (4:1) solution containing 0.5 ml of chloroform at room temperature (RT). The flasks were inspected under the microscope to ensure full removal of cells. The collected lysates were stored at −80° C.
Lysates were left to equilibrate for 5 minutes at room temperature to permit the complete dissociation of nucleoprotein complexes. 1 ml lysate was removed from each sample and 200 μL of chloroform was added to each and the tube was shaken vigorously. Samples were stored at room temperature for 2-3 minutes and subsequently centrifuged at 12,000×g/15 min at 4° C. The mixture separated into 3 layers: a lower red phenol-chloroform phase, an interphase and a colorless upper aqueous phase. The top % of the aqueous phase (containing the RNA) was transferred to a new clean Eppendorf tube. The RNA was precipitated from the aqueous phase by adding an equal amount of 100% ethanol. The precipitated RNA was fixed onto a Spin Cartridge, washed twice and dried. The RNA was eluted in 50 μL warm RNase-Free Water. The amount and quality of the purified RNA was measured by Nanodrop. The RNA was stored at −80° C. before transfer to Source Bioscience for Gene Array analysis.
The background corrected expression data from each sample were downloaded into a separate file. The background corrected signal was log2 transformed for all samples for statistical analysis. To reduce the false discovery rate in the samples, the signals that were below ‘expression level’ were removed. The ‘below expression’ level was set at 5 for the log2 transformed expression values. (The expression value of the MAPT gene, which is not normally expressed in Schwann cells, was <5. However, the expression of usual ‘control’ gene ACTB (A_32_P137939; ACTB) was comfortably above 5).
MetaboAnalyst (Chong and Xia, MetaboAnalystR: an R package for flexible and reproducible analysis of metabolomics data, Bioinformatics 34(24): 4313-4314 (2018)) was used to analyze the gene expression profiles. […]
Additionally, a preliminary analysis was carried out to screen out genes that were not differentially expressed between any combinations of the three datasets. […] The remaining probe sets were analyzed for fold change and significance using Volcano plots (Qlucore, Lund, Sweden). […]

The nature of data set [3]: Serum total bilirubin in patients before and after dextran sulfate administration. It counts as in vivo. To be noted: human patients with a neurological disease, 2 mg/kg subcutaneous once a week for ten weeks, week 10 vs week 0, p<0.05, FIG. 1. The procedure: Dextran sulfate (Tikomed A B, Viken, Sweden, WO 2016/076780) was administered at 2 mg/kg by […] subcutaneous injection once a week for ten weeks to human patients suffering from a neurological disease.
Peripheral venous blood samples were collected from patients before (week 0) and after dextran sulfate administration (week 5 and week 10) after at least 15 minutes of complete rest, using the standard tourniquet procedure, from the antecubital vein into a single VACUETTE® polypropylene tube containing serum separator and clot activator (Greiner-Bio One GmbH, Kremsmunster, Austria). After 30 mins at room temperature (20-25° C.), blood withdrawals were centrifuged at 1,890×g for 10 min to get serum aliquots.
A serum aliquot of about 300 μl was light-protected and then processed to extract fat-soluble metabolites using a method described in detail (Lazzarino et al., Single-step preparation of selected biological fluids for the high performance liquid chromatographic analysis of fat-soluble vitamins and antioxidants, J Chromatogr A. 2017; 1527: 43-52). Briefly, samples were supplemented with 1 ml of HPLC-grade acetonitrile, vigorously vortexed for 60 sec and incubated at 37° C. for 1 h in a water bath under agitation to allow the full extraction of lipid soluble compounds. […]

Setting [4] is: protein level, BioMAP Diversity Plus.

For Dextran sulfate, the “overall analysis of the responses of the 12 model systems” value in data set [1] (150-4000 nM, FIG. 3) is “modulated inflammatory and immunoregulatory cytokines and molecules, tissue remodeling pathways (including activation of matrix degrading enzymes) and hemostasis activity”. In data set [1] (all human culture systems evaluated, 150, 400, 1300 and 4000 nM), the “cytotoxicity (SRB staining / alamarBlue reduction)” value is given as “no cytotoxicity evident”. Further, in data set [1] (setting [4]), the CXCL9 levels result is on record as “reduced levels”, the CXCL10 levels entry is recorded as “reduced levels” and the CXCL11 levels entry is recorded as “reduced levels”. For the same substance, the “effect on inflammatory genes (molecular network analysis)” value in data set [2] (FIG. 5B) was “resolution of the normal inflammatory response”. For the same substance, the “expression of the anti-fibrotic proteoglycan decorin” value in data set [2] (TGFβ-regulated gene network) was “upregulating”. In addition, the “share of molecules of the TGFβ-regulated fibrosis network whose expression was regulated” value in data set [2] (14 of 165 molecules, p<0.001) was 8.5%. The “number of molecules of the TGFβ-regulated mechanistic network responsible for fibrosis whose expression was regulated” value in data set [2] (of 165 molecules, p<0.001) amounted to 14. Further, the “circulating levels of total bilirubin (free bilirubin + conjugated bilirubin)” value in data set [3] is “significant time-dependent decrease”.
